Several values for one entry are separate records, joined by “and”; a condition that tells them apart may be missing. Identical values can stand only once.
Experiments:
[1] = system: methicillin resistant S. aureus (MRSA); experiment: In vitro bacterial adherence and colonization of coated implants, MRSA; type: cell-based; settings: 24 hours incubation; for reduction of MRSA adherent to PTFE in vitro: coated PTFE; for reduction of MRSA adherent to PTFE in vitro / reduction of MRSA adherent to titanium screws in vitro: vs vehicle-coated controls; for reduction of MRSA adherent to silk suture in vitro: coated silk suture, vs vehicle (100% ethanol)-coated controls; for reduction of MRSA adherent to titanium screws in vitro: coated titanium screws
Description: Small pieces of PTFE (5 mm×5 mm), silk suture (2 cm), and titanium screws antibiotic-coated and vehicle (100% ethanol)-coated, were prepared for analysis as in Example 1.2. Bacteria was prepared as in 2.3 and 1000 colony forming units (cfus) in 300 μL was placed in the wells of 96-well plates. The antibiotic-coated and vehicle-coated pieces were then immersed and incubated for 24 hours at 37° C., 95% humidity (n=15 per group). Pieces were then placed in 10 mL sterile PBS and bath sonicated for 10 minutes to release adherent bacteria. Bacteria were quantified by the plate dilution method.

[2] = system: P. aeruginosa (strain 762); experiment: In vitro bacterial adherence and colonization of coated implants, P. aeruginosa; type: cell-based; settings: for reduction of P. aeruginosa adherent to PTFE in vitro / reduction of P. aeruginosa adherent to silk suture in vitro / reduction of P. aeruginosa adherent to titanium screws in vitro: 24 hours incubation, vs vehicle-coated controls; for reduction of P. aeruginosa adherent to silk suture in vitro: coated silk suture
Description: Bacteria was prepared as in 2.3 and 1000 colony forming units (cfus) in 300 μL was placed in the wells of 96-well plates. […] Pieces were then placed in 10 mL sterile PBS and bath sonicated for 10 minutes to release adherent bacteria. Bacteria were quantified by the plate dilution method.

[3] = system: methicillin resistant S. aureus (MRSA); experiment: Subcutaneous implant and infection of mice, MRSA colonization of implant; settings: CF-1 mice, 2.5 million cfu, 3 days post infection; for reduction of MRSA colonization of PTFE in vivo: subcutaneous coated PTFE; for reduction of MRSA colonization of silk suture in vivo: subcutaneous coated silk suture; for reduction of MRSA colonization of titanium screws in vivo: subcutaneous coated titanium screws
Description: (§1) Intact 5 cm sections of PTFE graft, full 75 cm length of silk suture, and individual titanium screws were dip-coated into each antibiotic solution and immediately withdrawn at a rate of ˜200 mm/'s. Thin films of antibiotic were subsequently formed as the ethanol evaporated.
(§2) After the PTFE, silk suture, and titanium are withdrawn from the antibiotic stock solution, they were allowed to further dry overnight at ambient conditions at room temperature. Vehicle (100% ethanol)-coated pieces were prepared in an identical manner, substituting absolute ethanol for the antibiotic stock solutions. PTFE implants were then cut to 5 mm×5 mm pieces, and silk suture was cut to 2 cm length for use in vitro and in vivo. Titanium screws were not further manipulated prior to use in vitro and in vivo.
(§3) MRSA was obtained from the clinical microbiology lab of Shriner's Hospital for Children (Cincinnati, OH). […] P. aeruginosa was grown from frozen glycerol stock overnight on TSB agar plates. MRSA was grown overnight from frozen glycerol stock on TSB agar plates with 5% sheep's blood. […] Bacteria were then washed twice by centrifugation at 3000×g for 10 min and resuspension in 0.9% NaCl. The optical density of the suspended bacteria was determined at 550 nm light and final inoculating concentration calculated from standard curves specific to each strain. Bacteria remained in 0.9% NaCl for in viva testing but were placed back into TSB for in vitro testing.
(§4) CF-1 mice were anesthetized with 120 mg/kg ketamine/16 mg/kg xylazine injected intraperitoneally and their backs shaved with electric clippers. A 2 cm incision was made in the back and implants (5 mm×5 mm PTFE, 2 cm silk suture, or titanium screws) were placed subcutaneously (n=9 per group).
(§5) Mice were sacrificed 3 days post infection. The implant capsule was entered with sterile instruments and the implant was removed and placed in 10 mL of sterile PBS. […] The implants and tissue were placed in a bath sonicator for 10 min to release adherent bacteria. Bacteria were then quantified by the plate dilution method. The most concentrated solution plated for each sample was a 1:100 dilution.

[4] = system: P. aeruginosa (strain 762); experiment: Subcutaneous implant and infection of mice, P. aeruginosa colonization of implant; settings: CF-1 mice, 2 million cfu, 3 days post infection; for reduction of P. aeruginosa colonization of PTFE in vivo: subcutaneous coated PTFE; for reduction of P. aeruginosa colonization of silk suture in vivo: subcutaneous coated silk suture; for reduction of P. aeruginosa colonization of titanium screws in vivo: subcutaneous coated titanium screws
Description: as §1, §2, §3, §4, §5

[5] = physchem; settings: 65 °C, organic solvent or mixture, thermodynamic from solid
Description: The process involved heating the ethanol to 65° C. and slowly adding the solid solute under bath sonication and manual agitation until the resulting solution was transparent. Dip coating was then carried out at room temperature immediately after removing the stock solutions from the heated water bath.
The reported solubility in the literature of the above antibiotics in ethanol are incompletely studied.

[6] = cited from earlier work; for reported solubility in ethanol/alcohol (in words): literature

solubility [5]	SMILES	reduction of MRSA adherent to PTFE in vitro [1]	reduction of MRSA adherent to silk suture in vitro [1]	reduction of MRSA adherent to titanium screws in vitro [1]	reduction of P. aeruginosa adherent to PTFE in vitro ([2]; coated PTFE)	reduction of P. aeruginosa adherent to silk suture in vitro [2]	reduction of P. aeruginosa adherent to titanium screws in vitro ([2]; coated titanium screws)	reduction of MRSA colonization of PTFE in vivo [3]	reduction of MRSA colonization of silk suture in vivo [3]	reduction of MRSA colonization of titanium screws in vivo [3]	reduction of P. aeruginosa colonization of PTFE in vivo [4]	reduction of P. aeruginosa colonization of silk suture in vivo [4]	reduction of P. aeruginosa colonization of titanium screws in vivo [4]	reported solubility in ethanol/alcohol (in words) [6]	other results
	C[C@H]1COc2c(N3CCN(C)CC3)c(F)cc3c(=O)c(C(=O)O)cn1c23 [Levofloxacin]	3.9 log	5.2 log	5.3 log	6.2 log	6.0 log	6.4 log	4.5 log and 3.7 log	5.1 log and 4.0 log	3.3 log and 3.0 log	4.4 log and 3.7 log	3.9 log and 4.3 log	4.0 log and 3.3 log		reduction of MRSA adherent to PTFE in vitro ([1]; listed as levofloxacin): 5.7 log; reduction of MRSA adherent to titanium screws in vitro ([1]; listed as levofloxacin): 5.2 log; reduction of P. aeruginosa adherent to PTFE in vitro ([2]; coated PTFE, listed as levofloxacin): 6.1 log
	O=C(N[C@H](CO)[C@H](O)c1ccc([N+](=O)[O-])cc1)C(Cl)Cl [Chloramphenicol]	5.7 log	5.2 log	5.3 log				3.1 log and 2.3 log	1.2 log and 1.1 log	2.2 log and 2.3 log					reduction of MRSA adherent to titanium screws in vitro ([1]; listed as chloramphenicol): 5.2 log
166000 µg/mL and 227000 µM	CC[C@H]1OC(=O)[C@H](C)[C@@H](O[C@H]2C[C@@](C)(OC)[C@@H](O)[C@H](C)O2)[C@H](C)[C@@H](O[C@@H]2O[C@H](C)C[C@H](N(C)C)[C@H]2O)[C@](C)(O)C[C@@H](C)C(=O)[C@H](C)[C@@H](O)[C@]1(C)O [Erythromycin]	5.7 log and 4.5 log	5.2 log	5.2 log and 5.3 log	5.8 log	1.6 log	5.1 log	3.8 log and 3.2 log	5.1 log	2.2 log and 2.5 log	4.4 log and 3.3 log	0.6 log and 0.4 log	0.5 log and 0.4 log	freely soluble	PA adherence to PTFE (in words) ([2]; coated PTFE, in vitro, p<0.05): significantly reduced; PA adherence to titanium screws (in words) ([2]; coated titanium screws, in vitro, p<0.05): significantly reduced; ethanol solubility reported by Sigma ([6]; ethanol, vendor value): 50 mg/mL
41000 µg/mL and 80000 µM	C[C@H]1c2cccc(O)c2C(=O)C2=C(O)[C@]3(O)C(=O)C(C(N)=O)=C(O)[C@@H](N(C)C)[C@@H]3[C@@H](O)[C@@H]21 [Doxycycline, Doxycycline Hyclate]	5.7 log	5.2 log	5.3 log	5.5 log	4.4 log	6.4 log	4.6 log and 4.7 log	3.2 log and 2.1 log	3.1 log and 3.0 log	4.4 log and 2.7 log	1.2 log and 1.1 log	3.7 log and 2.8 log	sparingly soluble	reduction of MRSA adherent to titanium screws in vitro ([1]; listed as doxycycline): 5.2 log; reduction of P. aeruginosa adherent to PTFE in vitro ([2]; coated PTFE, listed as doxycycline): 6.1 log; reduction of P. aeruginosa adherent to silk suture in vitro ([2]; listed as doxycycline): 6.0 log

Reference: patent US12440610B2, “Coated medical devices and methods of inhibiting implant-associated infections” (UNIVERSITY OF CINCINNATI, priority 2017, dated 2025)
